The record followed here is patent US9821072B2, “Activated neurotensin molecules and the uses thereof” (priority 2014, dated 2017).

Broadly, the Ki is the dissociation constant of the complex between target and ligand, obtained from inhibition or displacement.

For assay [1], the system named is Sprague-Dawley rats. Briefly: Hypothermic response after i.v. bolus in Sprague-Dawley rats. The format is in vivo, rat. Conditions: 5 mg/kg eq. NT i.v. bolus.
For assay [2], the target named is T1, human neurotensin receptor type 1 (hNTR-1) (Homo sapiens, UniProt P30989).
T1 construct: purchased PerkinElmer; host or cells: CHO cells stably expressing human NTR-1 (membrane homogenates)
Description: Competition binding assay with [3H]-neurotensin on human NTR-1 membranes (CHO cells). Conditions: read-out: NTR-1 binding affinity Ki, Human NTR-1.

In assay [3] the target is T2, rat neurotensin receptor type 1 (rNTR-1) (Rattus norvegicus, UniProt P20789).
T2 construct: host or cells: HEK293 cells (membrane homogenates)
Briefly: Competition binding assay with [3H]-neurotensin on rat NTR-1 membranes (HEK293 cells). Conditions: read-out: NTR-1 binding affinity Ki, Rat NTR-1.

The subject of assay [4] is FVB/N mice with KA-induced status epilepticus. Briefly: Kainic acid-induced status epilepticus model (body temperature, seizures, neurodegeneration, neuroinflammation, mossy fiber sprouting). The note with it: administered 30 min after SE onset. The format is in vivo, mouse. The source says:
In the present case, excitotoxicity was induced by subcutaneous (s.c.) injection of kainic acid (KA), a pro-convulsant agent known to induce a status epilepticus (SE) with excitotoxicity, neuroinflammation, and severe neuronal damage in the hippocampus that can be observed 3 to 7 days after KA administration, and with aberrant axonal sprouting of the dentate gyrus mossy fibers that can be observed at 7-8 weeks after KA administration. We tested the effect of compound XIV on i) epileptic activity (persistence of recurrent seizures), ii) neurodegeneration, neuroinflammation and the resulting brain tissue damage and iii) aberrant axonal sprouting of the dentate gyrus mossy fibers.
FVB/N adult male mice were injected with a single dose of KA (40-45 mg/kg s.c.) to generate mice with spontaneous recurrent seizures as a hallmark of SE. A negative control group of mice were administered saline 0.9% instead of KA and no further treatment (“SHAM”, n=5). Thirty minutes after the onset of SE, mice received either an intravenous (tail vein) bolus injection of compound XIV at the dose of 4 mg/kg eq. NT (treatment group “SE+HT”, n=5) or saline 0.9% (group “SE”, n=5), or a high dose of diazepam (DZP) at 15 mg/kg), a potent anti-convulsive and anti-epileptic drug (positive control group “SE+DZP”). Body temperature was monitored before KA injection and then every 15 min during 6 hours thereafter, using a rectal probe. During this period, mice were assessed for the occurrence and severity of motor seizures. One week later, animals were sacrificed for histological assessment of neuronal cell death on coronal sections, the hippocampal formation being the main structure in the brain showing tissue damage in this model of excitotoxicity. Another group of animals with the same treatments was sacrificed 8 weeks for histological assessment of aberrant axonal sprouting of the dentate gyrus mossy fibers.
Administration of KA (40-45 mg/kg; s.c.) caused characteristic sequential behavioral changes. Immediately after being injected, all animals developed immobility (stage 1). Within 30 minutes after KA injection, automatisms with head nodding, forelimb clonus and circling behavior (stages 2-3) were observed. Then most animals progressed to intermittent (stage 4) followed by continuous (stage 5) rearing with forelimb clonus and falling behavior. […] Only animals attaining at least Racine stage 5 seizures were included in the study. The SE occurred around 2 hours after KA injection, was characterized by stage 5-6 seizures and often associated with hyperthermia (FIG. 13A). Compound XIV administered 30 min after SE onset (SE30) invariably led to transient hypothermia (FIG. 13A), which persisted at least 2 hrs. Mean decreases in body temperature (BT) of −2.5° C. and −3.6° C. were respectively recorded for SE30+ compound XIV animals as compared to SE animals (F=52.34; ***P<0.001). […] SE30+ compound XIV animals presented an average of stage 2 seizures or fewer during the rest of experiment. A subset of animals was administered i.p. a high dose of diazepam (DZP). […] Thus, administration of compound XIV at the dose of 4 mg/kg eq. […] This effect correlated with a −3 to −6° C. decrease in body temperature during ˜2.5 hours.
Using the anti-NeuN antibody and Fluoro-jade C that respectively label a neuronspecific nuclear protein and neuronal death, we observed a broad loss of CA1 and CA3 pyramidal cells as well as some dentate hilar neurons in the hippocampus of control SE animals (FIG. 14A, panel B), as compared to SHAM animals (FIG. 14A, panel A).
SE-induced gliosis involved microglia and astroglial cell types. We used GFAP and Iba1 immunolabeling to estimate the effect of compound XIV on neuroinflammation. In SHAM animals, a basal labeling for GFAP and Iba1 was detected in the HF (FIG. 14A, panel D). In SE animals, a very strong activation of glial cells occurred in all hippocampal layers (FIG. 14, panels E, H). […]

Bridge positions count the residues as written; N and C are the ends. Square brackets hold non-standard residues; d marks the D form. Peptide text beside a SMILES is read from it. * marks the point of attachment. Pen = CC(C)(S)[C@H](N)C(=O)O; Tle = CC(C)(C)[C@H](N)C(=O)O; Pip = O=C(O)[C@@H]1CCCCN1; Propionyl = CCC(=O)*; Sar = CNCC(=O)O

T1 sequence (P30989 whole entry): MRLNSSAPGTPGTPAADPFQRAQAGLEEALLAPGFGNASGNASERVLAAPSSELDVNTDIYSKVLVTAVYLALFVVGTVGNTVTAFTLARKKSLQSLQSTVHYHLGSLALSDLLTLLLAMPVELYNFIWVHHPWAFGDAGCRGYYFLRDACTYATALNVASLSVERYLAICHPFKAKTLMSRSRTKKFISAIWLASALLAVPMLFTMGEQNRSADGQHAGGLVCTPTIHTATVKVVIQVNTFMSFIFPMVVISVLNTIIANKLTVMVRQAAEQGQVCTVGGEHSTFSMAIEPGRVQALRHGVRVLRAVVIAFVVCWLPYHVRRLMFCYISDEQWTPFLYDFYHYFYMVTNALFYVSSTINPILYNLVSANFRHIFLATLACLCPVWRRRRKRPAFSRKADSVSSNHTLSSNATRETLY
T2 sequence (P20789 whole entry): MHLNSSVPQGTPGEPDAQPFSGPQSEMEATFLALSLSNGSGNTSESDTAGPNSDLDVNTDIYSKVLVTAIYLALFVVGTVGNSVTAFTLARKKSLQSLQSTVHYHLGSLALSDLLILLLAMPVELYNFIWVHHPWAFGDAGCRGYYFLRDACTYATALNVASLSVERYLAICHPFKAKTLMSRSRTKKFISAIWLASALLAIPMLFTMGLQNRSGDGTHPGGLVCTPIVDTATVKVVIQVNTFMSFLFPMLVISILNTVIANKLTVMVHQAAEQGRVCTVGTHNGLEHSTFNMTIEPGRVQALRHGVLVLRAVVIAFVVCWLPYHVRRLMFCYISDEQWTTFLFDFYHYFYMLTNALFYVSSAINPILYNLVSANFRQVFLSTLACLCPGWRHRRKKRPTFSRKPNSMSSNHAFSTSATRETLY

Turning to `CCC(=O)N[C@@H]1CSSC[C@@H](C(=O)N[C@@H](CCCNC(=N)N)C(=O)N[C@@H](CCCNC(=N)N)C(=O)N2CCC[C@H]2C(=O)N[C@@H](Cc2ccc(O)cc2)C(=O)N[C@H](C(=O)N[C@@H](CC(C)C)C(=O)O)[C@@H](C)CC)NC(=O)CN(C)C(=O)[C@H](CCCNC(=N)N)NC(=O)[C@H](CC(C)C)NC(=O)[C@H](CCCNC(=N)N)NC(=O)[C@@H]2CCCCN2C(=O)[C@H](CCSC)NC1=O` [Compound IX, Pr-cMPipRLRSarC-RRPYIL-OH], the “Maximal decrease in body temperature” value in assay [1] (30 min post-injection) is −1.2 °C.
Turning to `CCC(=O)N[C@@H]1CSSC[C@@H](C(=O)N[C@@H](CCCNC(=N)N)C(=O)N[C@@H](CCCNC(=N)N)C(=O)N2CCC[C@H]2C(=O)N[C@@H](Cc2c[nH]c3ccccc23)C(=O)N[C@H](C(=O)N[C@@H](CC(C)C)C(=O)O)C(C)(C)C)NC(=O)CN(C)C(=O)[C@H](CCCNC(=N)N)NC(=O)[C@H](CC(C)C)NC(=O)[C@H](CCCNC(=N)N)NC(=O)[C@@H]2CCCCN2C(=O)[C@H](CCSC)NC1=O` [XVIII, Pr-cMPipRLRSarC-RRPWTIeL-OH] (Propionyl-[dC]M[Pip]RLR[Sar]CRRPW[Tle]L-OH; disulfide 1-8), the Ki in assay [2] is 2.98 ± 1.08 nM; in assay [3], 0.02 ± 0.01 nM. Moreover, the “Maximal decrease in body temperature” value in assay [1] (90 min post-injection) was “around −2.8 °C”.
Take `CCC(=O)N[C@@H]1CSSC[C@@H](C(=O)N[C@@H](CCCCN)C(=O)N[C@@H](CCCNC(=N)N)C(=O)N2CCC[C@H]2C(=O)N[C@@H](Cc2ccc(O)cc2)C(=O)N[C@H](C(=O)N[C@@H](CC(C)C)C(=O)O)C(C)(C)C)NC(=O)CN(C)C(=O)[C@H](CCCNC(=N)N)NC(=O)[C@H](CC(C)C)NC(=O)[C@H](CCCNC(=N)N)NC(=O)[C@@H]2CCCCN2C(=O)[C@H](CCSC)NC1=O` [XVI, Pr-cMPipRLRSarC-KRPYTIeL-OH] (Propionyl-[dC]M[Pip]RLR[Sar]CKRPY[Tle]L-OH; disulfide 1-8): the Ki in assay [2] was 0.15 ± 0.06 nM. Besides, in assay [1] (60 to 90 min post-injection), the “Maximal decrease in body temperature” value is “around −2 °C”.
For the compound `CCC(=O)N[C@@H]1CSSC[C@@H](C(=O)N[C@@H](CCCNC(=N)N)C(=O)N[C@@H](CCCNC(=N)N)C(=O)N2CCC[C@H]2C(=O)N[C@@H](Cc2ccc(O)cc2)C(=O)N[C@H](C(=O)N[C@@H](CC(C)C)C(=O)O)C(C)(C)C)NC(=O)CN(C)C(=O)[C@H](CCCNC(=N)N)NC(=O)[C@H](CC(C)C)NC(=O)[C@H](CCCNC(=N)N)NC(=O)[C@@H]2CCCCN2C(=O)[C@H](CCSC)NC1=O` [Compound XV, Pr-cMPipRLRSarC-RRPYTIeL-OH] (Propionyl-[dC]M[Pip]RLR[Sar]CRRPY[Tle]L-OH; disulfide 1-8), the Ki in assay [2] was 0.4 ± 0.2 nM; in assay [3] it was 0.06 ± 0.02 nM. Moreover, the “Maximal decrease in body temperature” value in assay [1] (60 to 90 min post-injection) was “around −2 °C”.
For `CCC(=O)N[C@@H]1CSSC(C)(C)[C@@H](C(=O)N[C@@H](CCCCN)C(=O)N[C@@H](CCCNC(=N)N)C(=O)N2CCC[C@H]2C(=O)N[C@@H](Cc2ccc(O)cc2)C(=O)N[C@H](C(=O)N[C@@H](CC(C)C)C(=O)O)C(C)(C)C)NC(=O)CN(C)C(=O)[C@H](CCCNC(=N)N)NC(=O)[C@H](CC(C)C)NC(=O)[C@H](CCCNC(=N)N)NC(=O)[C@@H]2CCCCN2C(=O)[C@H](CCSC)NC1=O` [XX, Pr-cMPipRLRSarPen-KRPYTIeL-OH] (Propionyl-[dC]M[Pip]RLR[Sar][Pen]KRPY[Tle]L-OH; disulfide 1-8), in that order: 0.11 ± 0.03 nM, 0.08 ± 0.06 nM and “around −2 °C”.
`CCC(=O)N[C@@H]1CSSC[C@@H](C(=O)N[C@@H](CCCNC(=N)N)C(=O)N[C@@H](CCCCN)C(=O)N2CCC[C@H]2C(=O)N[C@@H](Cc2ccc(O)cc2)C(=O)N[C@H](C(=O)N[C@@H](CC(C)C)C(=O)O)C(C)(C)C)NC(=O)CN(C)C(=O)[C@H](CCCNC(=N)N)NC(=O)[C@H](CC(C)C)NC(=O)[C@H](CCCNC(=N)N)NC(=O)[C@@H]2CCCCN2C(=O)[C@H](CCSC)NC1=O` [XVII, Pr-cMPipRLRSarC-RKPYTIeL-OH] (Propionyl-[dC]M[Pip]RLR[Sar]CRKPY[Tle]L-OH; disulfide 1-8): the Ki in assay [2] came to 0.47 ± 0.19 nM; in assay [3] it was 0.19 ± 0.07 nM. Moreover, the “Maximal decrease in body temperature” value in assay [1] (60 to 90 min post-injection) is “around −2 °C”.
On to `CCC(=O)N[C@@H]1CSSC[C@@H](C(=O)N[C@@H](CCCCN)C(=O)N[C@@H](CCCNC(=N)N)C(=O)N2CCC[C@H]2C(=O)N[C@@H](Cc2c[nH]c3ccccc23)C(=O)N[C@H](C(=O)N[C@@H](CC(C)C)C(=O)O)C(C)(C)C)NC(=O)CN(C)C(=O)[C@H](CCCNC(=N)N)NC(=O)[C@H](CC(C)C)NC(=O)[C@H](CCCNC(=N)N)NC(=O)[C@@H]2CCCCN2C(=O)[C@H](CCSC)NC1=O` [XIX, Pr-cMPipRLRSarC-KRPWTIeL-OH] (Propionyl-[dC]M[Pip]RLR[Sar]CKRPW[Tle]L-OH; disulfide 1-8), for which the values for the Ki in assay [2] and in assay [3] were 6.34 ± 2.25 nM and 0.03 ± 0.02 nM, respectively. Also, the “Maximal decrease in body temperature” value in assay [1] (90 min post-injection) is “around −2.8 °C”.
With `CN1C(=O)CN=C(c2ccccc2)c2cc(Cl)ccc21` [DZP, diazepam, reference compound], in assay [4], the “effect on body temperature (BT) compared with SE animals” value is “hypothermia was also observed”; the “glial inflammatory response in the hippocampus (GFAP, Iba1) compared with SE animals” value is listed as “significantly decreased”; the “seizure stage (Racine) during the rest of the experiment” value is 1-2 stage. In addition, the “number of mossy fiber terminals innervating the IML (ZnT3) compared with SE animals” value in assay [4] (8 weeks after SE) is given as “considerably reduced”. Further, the “neurodegeneration in the hippocampus (NeuN, Fluoro-jade C) compared with SE animals” value in assay [4] (one week later) is “significantly decreased”.
